# In publication PMC5665932, “A novel peptide that improves metabolic parameters without adverse central nervous system effects” (Scientific Reports, 2017):
# Where a SMILES comes first, the peptide text is derived from it.
# Columns and labels:
# [1] = biological target: T1, CB1R (Mus musculus, UniProt P47746); assay: Displacement of [3H]SR141716A binding, membranes of 3T3-L1 cells; details: membranes (250 μg) of 3T3-L1 cells endogenously expressing CB1R, [3H]SR141716A 3 nM, Pep19 0–10 μM, 1 h at 30 °C, pH 7.8, n = 3; read-out: IC50, displaces [3H]SR141716A binding
# T1 construct: Membranes were prepared from 3T3-L1 cells endogenously expressing CB1R; endogenous in cells; host or cells: 3T3-L1 cells (membranes)
# T1 sequence (P47746 whole entry): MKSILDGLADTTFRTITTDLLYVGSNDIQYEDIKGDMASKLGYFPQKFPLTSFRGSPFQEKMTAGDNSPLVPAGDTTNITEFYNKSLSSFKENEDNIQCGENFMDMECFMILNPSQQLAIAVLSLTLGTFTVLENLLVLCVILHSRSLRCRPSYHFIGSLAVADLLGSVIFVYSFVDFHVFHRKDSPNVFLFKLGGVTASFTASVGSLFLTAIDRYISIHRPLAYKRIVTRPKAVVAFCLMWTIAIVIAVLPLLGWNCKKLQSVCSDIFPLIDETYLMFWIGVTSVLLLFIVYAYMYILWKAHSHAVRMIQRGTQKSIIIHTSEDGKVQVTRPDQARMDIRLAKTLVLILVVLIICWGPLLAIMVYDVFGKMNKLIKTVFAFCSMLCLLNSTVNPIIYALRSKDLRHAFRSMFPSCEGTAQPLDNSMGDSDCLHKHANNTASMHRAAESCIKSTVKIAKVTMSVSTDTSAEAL
# Procedure: Membranes were prepared from 3T3-L1 cells endogenously expressing CB1R, and displacement ligand binding assays were carried out as previously described[8] with minor modifications. Briefly, membranes (250 μg) were incubated with [^3H] SR141716A (3 nM) in 50 mM Tris-Cl, pH 7.8, containing 1 mM EGTA, 5 mM MgCl2, and protease inhibitor cocktail in the presence of Pep19 (0–10 μM) for 1 h at 30 °C. At the end of the incubation period, membranes were filtered using a Brandel filtration system and GF/B filters (presoaked for 2 h at room temperature with 0.1% polyethyleneimine containing 0.2% fatty acid free BSA), filters were washed 3 times with ice-cold 50 mM Tris-Cl (pH 7.4) and bound radioactivity measured using a liquid scintillation counter.
# Supplemental Figure 1. Ligand binding studies with Pep19. Membranes were prepared from 3T3L-1 cells endogenously expressing CB1R, and displacement ligand binding assays were carried out as previously described8 with minor modifications. Membranes (250 μg) were incubated with [3H]SR141716A (3 nM) in 50 mM Tris-Cl, pH 7.8, containing 1 mM EGTA, 5 mM MgCl2, and protease inhibitor cocktail in the presence of Pep19 (0-10 μM).
# Values in the absence of Pep19 were taken as 100%. Data represent mean ± […]
# (1 picture or pasted object on this page, not shown here)
# [2] = tested on: DIO Wistar rats; assay: Tail-cuff blood pressure and heart rate in DIO rats; type: in vivo; details: oral by gavage, mean ± SEM
# Procedure: Measurements of systolic blood pressure were performed at the proximal part of the tail, by a tail-cuff method using the Kent RTBP2000 system and the Kent RTB001-R data acquisition system (Kent Scientific Corporation, Torrington, CT, USA) from 9 to 11 a.m. Before measurements, rats were warmed for 10 min and three stable consecutive measurements were taken and averaged after animals have been trained for proper adaptation to the procedures.
# [3] = tested on: C57BL/6J mice; assay: Tetrad cannabinoid tests (catalepsy, tail temperature, locomotor activity, hot plate); type: in vivo; details: n = 6/group
# Procedure: C57BL/6J mice were treated i.p. with Pep19 (0.1 or 1 mg/kg), the CB1R agonist WIN55,212-2 (5 mg/kg) or vehicle (n = 6 per group) and evaluated in the tetrad cannabinoid tests. Another group of animals received Pep19 (0.1 or 1 mg/kg) or saline i.p. for 10 days, once a day. In the last day of treatment the animals were subjected to the tetrad cannabinoid tests 30 minutes after the i.p. administration. The CB1 agonist WIN55,212-2 (5 mg/kg) was administrated i.p. 30 minutes before the experiments as a positive control (n = 6 per group).
# It was assayed by the bar test[40], 30 min after drug administration. Briefly, each mouse was placed on a bar oriented parallel to and approximately 4 cm above the bench surface. Cataleptic behavior was defined as the time the animal remained motionless holding on to the bar; cutoff = 300 s[41].
# It was determined by using a thermal probe (Thermocom®, Nashua, NH 03062, EUA) positioned 50 cm of the animal. The mean of five pictures of five different tail regions was compared between a basal evaluation and another observation 35 min after drug administration.
# It was determined by an open field test, in which a mouse was placed in a circular cage (40 cm diameter), 37 min after drug administration. The distance traveled by the animal was recorded for 10 min by the software ANY-MAZE (Stoelting).
# The mouse was placed on a heated plate at 56 °C. An experimenter measured the time it took for the mouse to lick the paws or jump off of the hot plate; cutoff = 30 s[42]. The variation between a basal evaluation and another one taken 45 min after drug administration was defined as the result.
# [4] = tested on: Male Wistar rats; assay: Elevated plus maze; type: in vivo; details: 100–600 µg/kg, one hour after administration, 5 min, n = 7–9/group
# Procedure: Male Wistar rats were tested in a wooden-made elevated plus maze according to Hefner and Holmes[43] one hour after vehicle or Pep19 i.p. administration (100–600 µg/kg). The percentage of entries, time spent in the open arms, and the number of enclosed arms entries for 5 min were analyzed by the Anymaze Software (version 4.5, Stoelting, USA). Locomotor activity and speed traveled were also recorded.
# [5] = tested on: Male Wistar rats; assay: Forced swim test; type: in vivo; details: first 5 min of the swim test, n = 6/group (Pep19), n = 8–10/group (rimonabant)
# Procedure: The forced swim test was based on previous designs. Male Wistar rats were placed in a cylindrical plexiglass tank (50 cm high and 30 cm diameter) filled with water (19 °C) up to a level of 25 cm from the bottom. The animal’s behavior during the first 5 min of the swim test was scored by a trained observer and the following measures were taken: (1) time spent swimming, defined as movements of all four limbs, swimming around the tank or diving and (2) time spent floating, defined as the time the animal remained immobile with only occasional slight movements to keep the body balanced and the nose above the water.
# [6] = tested on: HEK293T cells; type: cell-based; details: up to 100 µM, n = 3/group
# Procedure: (§1) HeLa and HEK293-T cells were cultured in DMEM (Dulbecco’s Modified Eagle Medium, Gibco®, USA) containing 10% fetal bovine serum (complete medium), penicillin and streptomycin (Gibco®, USA) at 37 °C and in presence of 5% of CO2. For cell counting, single cell suspension of HeLa and HEK293-T cells were rinsed with PBS and treated with 0.4% Trypan blue in PBS for 90 s. Excess dye was removed, and the cells were washed twice with PBS before counting. For a control of 100% permeabilized cells they were treated with 50% ethanol for 1 min and then stained as described above. In all of the experiments cellular viability was greater than 98% (data not shown). The MTT (3-(4,5-dimethylthiazol-2-yl)-2,5-diphenyltetrazolium bromide) tetrazolium reduction assays were conducted in a 96-well format. The optical density was measured at 570 nm using a SpectraMax M2 (Molecular Devices, Sunnyvale, CA, USA). Three independent experiments were conducted in triplicates for each treatment.
# [7] = tested on: HeLa cells; type: cell-based; details: up to 100 µM, n = 3/group
# Procedure: as §1
# [8] = tested on: Male C57BL/6J mice; type: in vivo; details: 0.1 or 1 mg/kg i.p. for 10 days
# Procedure: Male C57BL/6J mice received a chronic treatment with Pep19 (0.1 or 1 mg/kg) or saline administrated i.p. for 10 days, once a day. The same animal was tested in the EPM and FST 30 and 35 minutes after the last injection, respectively.
# Supplemental Figure 2. In vivo assays showing results of chronic treatment with Pep19 i.p. for 10 days. To further confirm the lack of in vivo effects of Pep19, it was chronically administrated for 10 days, and the behavior effects were evaluated in the tetrad cannabinoid tests, consisting of (a) catalepsy, (b) tail temperature, (c) locomotor activity and (d) hot plate test. Note that no […]
# (saline) or Pep19 (one-way ANOVA followed by Tukey’s test, n = 6/group), […]
# (a-d; * P<0.05). In the elevated plus maze (e, f) the anxiety-like activity of chronic administration was evaluated following i.p. injections of 0.1 or 1 mg/kg […]
# groups treated with vehicle or Pep19 (one-way ANOVA followed by Tukey’s […]
# locomotor (g) and speed travelled (h) in the elevated plus maze. In the forced swim test (i), chronic administration of Pep19 i.p. for 10 days produced no significant differences (one-way ANOVA followed by Tukey’s test, n = 6-7/ […]
structure (smiles),measurement,setting,value
CC[C@H](C)[C@H](NC(=O)[C@@H](NC(=O)[C@@H](N)CC(=O)O)[C@@H](C)CC)C(=O)N[C@@H](C)C(=O)N[C@@H](CC(=O)O)C(=O)N[C@@H](CC(=O)O)C(=O)N[C@@H](CCC(=O)O)C(=O)N1CCC[C@H]1C(=O)N[C@@H](CC(C)C)C(=O)N[C@H](C(=O)O)[C@@H](C)O [Pep19] (H-DIIADDEPLT-OH),IC50,[1],~4.9 pM
same,Heart rate,[2]; 100 µg/Kg,405.3 ± 2.3 (n = 3) beats/min
same,Heart rate,[2]; 300 µg/Kg,399.9 ± 5.8 (n = 3) beats/min
same,Heart rate,[2]; 600 µg/Kg,408.5 ± 4.1 (n = 3) beats/min
same,cannabinoid tetrad after chronic treatment,"[3]; 0.1 or 1 mg/kg i.p. for 10 days, once a day, tested 30 minutes after last administration",significant differences were observed between the groups treated with vehicle
same,"cannabinoid tetrad (catalepsy, hot plate, locomotor activity, tail temperature)","[3]; 0.1 or 1 mg/kg i.p., single administration",has no effect on the cannabinoid tetrad
same,"elevated plus maze: distance moved, speed, ratio of open/total arms entries and time spent",[4],did not alter
same,forced swim test: time spent swimming and time spent floating,[5],produced no significant differences
same,"cell toxicity, MTT reduction assay",[6],has no ability to induce cell toxicity
same,"cell toxicity, MTT reduction assay",[7],has no ability to induce cell toxicity
same,"elevated plus maze after chronic treatment: anxiety-like activity, locomotor and speed travelled","[8]; 30 minutes after the last injection, n=6-7/group",no significant differences were observed
same,forced swim test after chronic treatment,"[8]; 35 minutes after the last injection, n = 6-7/group",produced no
